In patent publication US12653830B2, “Substituted imidazoquinoxaline compounds and uses thereof” (Impact Therapeutics (Shanghai), Inc, priority 2019, dated 2026):
Read-outs that look alike come from different tables or passages of the source.

Key:
[1] = tested on: human colon cancer cell SW620; test: MTT proliferation assay in combination with CPT-11, SW620; format: cell-based; details: medium containing 205 nM CPT-11, 5 days, read-out: IC50, inhibition of proliferation of SW620 combined with CPT-11
Method: Determination of the Inhibitory Effect of the Compound of Example 2 and its Analogues in Combination with CPT-11 on the Proliferation of Human Colon Cancer Cell SW620 Using MTT Assay
The human colon cancer cells SW620 were cultured in RPMI 1640 medium with 10% FBS and used at about 90% confluence for experiments. The SW620 cells were digested with trypsinase and centrifuged at 800 rpm for 5 minutes. The supernatant was discarded and the cell pellets were resuspended with fresh medium (RPMI 1640+10% FBS). The cells were seeded into 96-well cell culture plates with appropriate cell density and incubated at 37° C. overnight in a 5% CO2 incubator. […] The first concentration was 1 μM or 0.333 μM, the last concentration was DMSO negative control (0 μM). 5 μL of solutions of each concentration was added to 120 μL of medium (a 25 times dilution) and mixed by shaking. The cells were cultured overnight and the culture medium was replaced with 195 μL/well of fresh medium containing 205 nM CPT-11 and 5 μL/well of medium containing the test compound (the final concentration of DMSO was 1%). The culture plates were returned to incubator and cultured at 37° C., 5% CO2 for 5 days. At the day of experiment, medium was discarded and replaced with 100 μL of fresh serum-free DMEM medium containing MTT (0.5 mg/mL), and the culture was continued. 4 hours later, the medium was discarded and replaced with 100 μL/well of DMSO, the plate was shaken for 10 minutes in dark and the absorbance was measured at the wavelengths of 552 and 690 nm using a multi-function plate reader. Data were analyzed by Graph Pad Prism 6.0. The inhibitory effects of compounds on cell proliferation were plotted based on cell viability vs. the logarithm of compound concentration. Cell viability %=(ODcompound−ODbackground)/(ODDMSO−ODbackground)×100.
Table 3 summarizes the inhibitory effect data (IC50) of some compounds combined with CPT-11 on the proliferation of human colon cancer cell SW620.

[2] = target: T1, ATM kinase (Homo sapiens, UniProt Q13315); test: In vitro ATM kinase assay (Cisbio HTRF, p53 substrate); format: biochemical; details: 30 μM ATP; for inhibition at 0.001 µM / inhibition at 0.0001 µM / inhibition at 0.01 µM: read-out: Inh % (inhibitory effect on ATM kinase activity); for inhibition at 0.0001 µM: Conc. 0.1 nM
T1 construct: purchased Eurofins 14-933
Method: Determination of the Inhibitory Effect In Vitro of the Compound of Example 2 and its Analogues on ATM Using In Vitro ATM Kinase Assay
ATM enzymatic activity was measured using Cisbio's HTRF reagent in a 384-well plate (Greiner, #784075). […] The mixtures were centrifuged at 1000 rpm for 1 minute, and reacted in dark for 30 minutes at room temperature. Then, 5 μL of EDTA termination solution (250 mm) was added to terminate the reaction. After 5 μL of detection mixture (Anti-phospho-p53 (ser15)-K (Cisbio, #61P08KAE, 0.084 ng/μL) and Anti-GST-d2 (Cisbio, #61GSTDLA, 5.00 ng/μL)) was finally added to each well, the mixtures were cultured at room temperature over night, and the fluorescence values at 665 nm and 615 nm were measured on Envision 2104. The final concentration of each reagent of the experiment was as follows: 12.5 mM HEPES (pH8.0), 0.5% glycerol, 0.005% Brij-35, 0.625 mM DTT, 0.0125% BSA, 15 nM p53, 0.25 ng/μL ATM, 30 μM ATP, 2.5 mM Mg(AcO)2, 2.5 mM MnCl2, 62.5 mM EDTA, 0.021 ng/μL Anti-phospho-p53, 1.25 ng/μL Anti-GST-d2.
Relative fluorescence ratio was calculated: Ratio665 nm/615 nm−Ratiobackground, and inhibition rate %=(1−(relative fluorescence ratio of test compound well−relative fluorescence ratio of positive control well)/(relative fluorescence ratio of negative control well−relative fluorescence ratio of positive control well))×100 was calculated. Data were analyzed using GraphPad Prism6.0 and fitted using the curve equation: Y=Bottom+(Top−Bottom)/(1+10^((Log IC50−X)*HillSlope)), and IC50 values were calculated.

[3] = tested on: human breast cancer cell MDA-MB-468; test: MTT proliferation assay, MDA-MB-468; format: cell-based; details: 7 days, single agent, read-out: IC50, inhibition of proliferation of MDA-MB-468
Method: Determination of the Inhibitory Effect of the Compound of Example 2 and its Analogues on the Proliferation of Human Breast Cancer Cell MDA-MB-468 Using MTT Assay
The human breast cancer cells MDA-MB-468 were cultured in RPMI 1640 medium with 10% FBS and used at 90% confluence. The MDA-IVB-468 cells were digested with trypsinase and centrifuged at 800 rpm for 5 minutes. The supernatant was discarded and the cell pellets were resuspended with fresh medium and counted. Cells were seeded to 96-well cell culture plates with appropriate cell density and incubated overnight at 37° C., 5% CO2. […] 5 μL of solutions of each concentration was added to 120 μL of medium (diluted by 25 times) and mixed by shaking. The culture medium of cells cultured overnight was discarded and replaced with 195 μL/well of fresh medium (RPMI 1640+5% FBS) and 5 μL/well of diluted medium containing the test compound of corresponding concentrations (the final concentration of DMSO was 1%), and the culture plate was then returned to 5% CO2 incubator at 37° C. for 7 days (on the fourth day, dressing was changed once and culture was continued). On the day of experiment, culture medium was discarded and replaced with 100 μL/well of fresh serum-free DMEM medium containing MTT (0.5 mg/mL), and the culture was continued. After 4 hours, medium was discarded and replaced with 100 μL/well of DMSO, the plates were shaken for 10 minutes in darkness and the absorbance was measured at the wavelengths of 552 and 693 nm using a multi-function plate reader. Graph Pad Prism 6.0 was used to analyze the data. The inhibitory effects of compounds on cell proliferation were plotted based on cell viability vs. the logarithm of compound concentration. Cell viability %=(ODcompound−ODbackground)/(ODDMSO−ODbackground)×100.
Table 4 summarizes the inhibitory effect data (IC50) of some compounds on the proliferation of human breast cancer cell MDA-MB-468.

[4] = Homo sapiens, MDA-MB-468, 168 h

T1 sequence (Q13315 whole entry): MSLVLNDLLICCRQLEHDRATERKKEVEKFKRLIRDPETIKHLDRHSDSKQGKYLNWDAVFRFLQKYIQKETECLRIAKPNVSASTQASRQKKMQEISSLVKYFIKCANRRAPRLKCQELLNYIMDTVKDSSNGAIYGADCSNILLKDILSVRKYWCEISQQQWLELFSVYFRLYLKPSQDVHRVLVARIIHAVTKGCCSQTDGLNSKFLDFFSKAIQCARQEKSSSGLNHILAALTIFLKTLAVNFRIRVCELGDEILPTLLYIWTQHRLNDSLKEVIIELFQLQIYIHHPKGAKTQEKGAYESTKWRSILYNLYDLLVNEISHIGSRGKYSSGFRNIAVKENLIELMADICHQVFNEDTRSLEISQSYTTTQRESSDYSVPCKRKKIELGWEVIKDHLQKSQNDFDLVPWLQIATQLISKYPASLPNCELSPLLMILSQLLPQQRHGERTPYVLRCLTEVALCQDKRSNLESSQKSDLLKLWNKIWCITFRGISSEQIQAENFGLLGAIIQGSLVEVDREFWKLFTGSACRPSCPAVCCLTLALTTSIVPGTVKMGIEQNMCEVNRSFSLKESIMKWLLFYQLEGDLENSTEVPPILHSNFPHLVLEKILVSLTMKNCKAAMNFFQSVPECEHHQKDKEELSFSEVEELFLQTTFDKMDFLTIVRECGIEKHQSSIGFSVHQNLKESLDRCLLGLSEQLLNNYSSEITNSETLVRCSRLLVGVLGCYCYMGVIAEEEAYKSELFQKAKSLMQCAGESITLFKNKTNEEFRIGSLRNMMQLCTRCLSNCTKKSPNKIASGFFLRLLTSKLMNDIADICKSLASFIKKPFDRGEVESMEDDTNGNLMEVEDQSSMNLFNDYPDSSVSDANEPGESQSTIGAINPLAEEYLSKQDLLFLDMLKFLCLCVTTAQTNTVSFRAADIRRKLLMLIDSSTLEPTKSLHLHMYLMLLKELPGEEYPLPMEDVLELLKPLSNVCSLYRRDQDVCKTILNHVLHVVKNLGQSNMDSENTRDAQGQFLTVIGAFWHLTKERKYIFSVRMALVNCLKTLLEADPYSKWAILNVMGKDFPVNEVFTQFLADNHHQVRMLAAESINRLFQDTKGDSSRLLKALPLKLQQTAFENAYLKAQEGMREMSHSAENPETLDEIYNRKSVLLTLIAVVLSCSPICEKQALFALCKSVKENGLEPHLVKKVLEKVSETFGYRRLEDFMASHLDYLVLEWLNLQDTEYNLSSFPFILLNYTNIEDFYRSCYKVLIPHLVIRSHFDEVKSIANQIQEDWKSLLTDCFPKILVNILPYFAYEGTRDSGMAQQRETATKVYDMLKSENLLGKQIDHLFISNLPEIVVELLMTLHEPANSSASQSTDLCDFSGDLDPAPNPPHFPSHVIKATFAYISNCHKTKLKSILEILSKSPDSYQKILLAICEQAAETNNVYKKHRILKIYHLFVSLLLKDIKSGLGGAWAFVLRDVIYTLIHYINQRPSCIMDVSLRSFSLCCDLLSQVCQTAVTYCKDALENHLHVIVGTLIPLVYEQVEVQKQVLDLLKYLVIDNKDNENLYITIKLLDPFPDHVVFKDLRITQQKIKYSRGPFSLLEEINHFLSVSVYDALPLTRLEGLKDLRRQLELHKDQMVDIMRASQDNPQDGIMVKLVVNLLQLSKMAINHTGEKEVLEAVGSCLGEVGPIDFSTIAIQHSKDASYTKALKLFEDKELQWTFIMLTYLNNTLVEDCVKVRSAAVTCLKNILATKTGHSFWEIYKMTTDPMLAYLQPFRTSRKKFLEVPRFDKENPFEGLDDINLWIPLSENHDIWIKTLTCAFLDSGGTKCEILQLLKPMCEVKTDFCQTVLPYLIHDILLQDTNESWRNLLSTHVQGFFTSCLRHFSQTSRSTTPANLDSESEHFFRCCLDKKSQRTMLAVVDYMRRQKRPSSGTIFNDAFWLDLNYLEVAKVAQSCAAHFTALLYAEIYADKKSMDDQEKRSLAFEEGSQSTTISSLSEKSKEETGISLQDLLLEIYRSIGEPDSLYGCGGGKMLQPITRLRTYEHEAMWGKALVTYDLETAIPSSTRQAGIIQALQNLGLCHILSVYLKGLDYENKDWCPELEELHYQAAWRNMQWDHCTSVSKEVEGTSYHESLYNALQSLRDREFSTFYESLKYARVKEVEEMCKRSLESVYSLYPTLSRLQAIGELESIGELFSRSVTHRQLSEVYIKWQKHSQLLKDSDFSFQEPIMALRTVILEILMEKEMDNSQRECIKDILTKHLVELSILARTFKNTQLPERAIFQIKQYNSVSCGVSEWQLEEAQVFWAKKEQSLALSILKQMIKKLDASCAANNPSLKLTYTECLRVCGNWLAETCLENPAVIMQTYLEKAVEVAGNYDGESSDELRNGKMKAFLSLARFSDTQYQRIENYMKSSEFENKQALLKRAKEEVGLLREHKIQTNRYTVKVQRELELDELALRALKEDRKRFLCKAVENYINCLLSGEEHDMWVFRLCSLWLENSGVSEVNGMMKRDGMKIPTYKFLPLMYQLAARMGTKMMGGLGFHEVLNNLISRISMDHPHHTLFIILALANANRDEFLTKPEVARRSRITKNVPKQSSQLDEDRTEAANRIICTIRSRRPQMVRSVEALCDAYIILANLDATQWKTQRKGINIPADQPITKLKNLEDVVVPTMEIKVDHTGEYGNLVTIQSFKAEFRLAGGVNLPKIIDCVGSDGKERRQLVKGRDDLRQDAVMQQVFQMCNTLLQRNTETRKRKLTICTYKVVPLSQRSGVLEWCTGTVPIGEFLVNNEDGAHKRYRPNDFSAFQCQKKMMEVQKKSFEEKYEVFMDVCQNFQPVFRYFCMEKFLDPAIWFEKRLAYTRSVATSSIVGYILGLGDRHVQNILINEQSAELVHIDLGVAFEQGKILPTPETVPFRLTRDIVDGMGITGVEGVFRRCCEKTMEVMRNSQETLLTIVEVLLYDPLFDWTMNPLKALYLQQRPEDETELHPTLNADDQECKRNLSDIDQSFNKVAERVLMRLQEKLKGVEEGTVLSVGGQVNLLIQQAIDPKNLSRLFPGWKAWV

IC50 [1]	inhibition at 0.001 µM ([2]; Conc. 1 nM)	IC50 [3, 4]	IC50 ([1]; Homo sapiens, SW-620, 120 h)	IC50 [2]	inhibition at 0.0001 µM [2]	inhibition at 0.01 µM ([2]; Conc. 10 nM)	Compound	Inh % (inhibitory effect on ATM kinase activity) ([2]; Conc. 1 nM)	Inh % (inhibitory effect on ATM kinase activity) ([2]; Conc. 10 nM)	Inh % (inhibitory effect on ATM kinase activity) ([2]; Conc. 100 nM)	IC50 [3]
72.6 nM	40%	58.8 nM					Cc1nc(N2C[C@@H](C)O[C@@H](C)C2)n2c1cnc1ccc(-c3ccc(OCCN(C)C)nc3)cc12 [Example 36, 2-((5-(1-((2S,6R)-2,6-dimethylmorpholino)-3-methylimidazo[1,5-a]quinoxalin-8-yl)pyridin-2-yl)oxy)-N,N-dimethylethan-1-amine]				
51 nM	54%	48.6 nM					Cc1nc(C(C)C)n2c1cnc1ccc(-c3ccc(N4CCC(N(C)C)CC4)c(C(F)(F)F)c3)cc12 [Example 26, N,N-dimethyl-1-(4-(1-isopropyl-3-methylimidazo[1,5-a]quinoxalin-8-yl)-2-(trifluoromethyl)phenyl)piperidin-4-amine]				
		9.2 nM	12 nM	0.19 nM			Cc1nc(N2C[C@@H](C)O[C@@H](C)C2)n2c1cnc1ccc(-c3ccc(OCCCN4CCN(C)CC4)nc3)cc12 [Example 59, (2S,6R)-2,6-dimethyl-4-(3-methyl-8-(6-(3-(4-methylpiperazin-1-yl)propoxy)pyridin-3-yl)imidazo[1,5-a]quinoxalin-1-yl)morpholine]				
19.2 nM	59%	18.8 nM			45%	96%	Cc1nc(C2CCOCC2)n2c1cnc1ccc(-c3ccc(OCCCN(C)C)nc3)cc12 [Example 2, N,N-dimethyl-3-((5-(3-methyl-1-(tetrahydro-2H-pyran-4-yl)imidazo[1,5-a]quinoxalin-8-yl)pyridin-2-yl)oxy)propan-1-amine]				
25.9 nM	86%	22.6 nM			18%	96%	Cc1nc(C2CCOCC2)n2c1cnc1ccc(-c3ccc(N4CCC(N(C)C)CC4)c(Cl)c3)cc12 [Example 7, N,N-dimethyl-1-(2-chloro-4-(3-methyl-1-(tetrahydro-2H-pyran-4-yl)imidazo[1,5-a]quinoxalin-8-yl)phenyl)piperidin-4-amine]				
		7.6 nM	9.2 nM	0.1 nM			Cc1nc(N2C[C@@H](C)O[C@@H](C)C2)n2c1cnc1ccc(-c3ccc(OCCCN4CCCC4)nc3)cc12 [Example 32, (2S,6R)-2,6-dimethyl-4-(3-methyl-8-(6-(3-(pyrrolidin-1-yl)propoxy)pyridin-3-yl)imidazo[1,5-a]quinoxalin-1-yl)morpholine]				
40.2 nM		29.1 nM				98%	Cc1nc(C2CCOCC2)n2c1cnc1ccc(-c3ccc(OCCCN(C)C)cc3)cc12 [Example 3, N,N-dimethyl-3-(4-(3-methyl-1-(tetrahydro-2H-pyran-4-yl)imidazo[1,5-a]quinoxalin-8-yl)phenoxy)propan-1-amine]				
> 1000 nM		782 nM				15%	Cc1nn(C)cc1-c1ccc2ncc3c(C)nc(C4CCOCC4)n3c2c1 [Example 13, 8-(1,3-dimethyl-1H-pyrazol-4-yl)-3-methyl-1-(tetrahydro-2H-pyran-4-yl)imidazo[1,5-a]quinoxaline]				
27.4 nM	55%	20.9 nM			9%	91%	Cc1nc(N2CCN(C)CC2)n2c1cnc1ccc(-c3ccc(OCCCN(C)C)nc3)cc12 [Example 17, N,N-dimethyl-3-((5-(3-methyl-1-(4-methylpiperazin-1-yl)imidazo[1,5-a]quinoxalin-8-yl)pyridin-2-yl)oxy)propan-1-amine]				
		40.2 nM	46.9 nM	0.18 nM			Cc1nc(N2C[C@@H](C)O[C@@H](C)C2)n2c1cnc1ccc(-c3ccc(NCCCN(C)C)nc3)cc12 [Example 46, N^1-(5-(1-((2S,6R)-2,6-dimethylmorpholino)-3-methylimidazo[1,5-a]quinoxalin-8-yl)pyridin-2-yl)-N^3,N^3-dimethylpropane-1,3-diamine]				
30 nM	78%	31.1 nM			11%	97%	CCNC1CCN(c2ccc(-c3ccc4ncc5c(C)nc(C6CCOCC6)n5c4c3)cc2C(F)(F)F)CC1 [Example 11, N-ethyl-1-(4-(3-methyl-1-(tetrahydro-2H-pyran-4-yl)imidazo[1,5-a]quinoxalin-8-yl)-2-(trifluoromethyl)phenyl)piperidin-4-amine]				
		42.6 nM	54.3 nM	0.15 nM			CCc1nc(N2C[C@@H](C)O[C@@H](C)C2)n2c1cnc1ccc(-c3ccc(OCCCN(C)C)nc3)cc12 [Example 41, 3-((5-(1-((2S,6R)-2,6-dimethylmorpholino)-3-ethylimidazo[1,5-a]quinoxalin-8-yl)pyridin-2-yl)oxy)-N,N-dimethylpropan-1-amine]				
20.8 nM	84%	11 nM			30%	98%	Cc1nc(C(C)C)n2c1cnc1ccc(-c3ccc(N4CCC(N(C)C)CC4)c(F)c3)cc12 [Example 24, N,N-dimethyl-1-(2-fluoro-4-(1-isopropyl-3-methylimidazo[1,5-a]quinoxalin-8-yl)phenyl)piperidin-4-amine]				

Compound	IC50 [1]	inhibition at 0.001 µM ([2]; Conc. 1 nM)	IC50 [3, 4]	IC50 ([1]; Homo sapiens, SW-620, 120 h)	IC50 [2]	inhibition at 0.0001 µM [2]	inhibition at 0.01 µM ([2]; Conc. 10 nM)	Inh % (inhibitory effect on ATM kinase activity) ([2]; Conc. 1 nM)	Inh % (inhibitory effect on ATM kinase activity) ([2]; Conc. 10 nM)	Inh % (inhibitory effect on ATM kinase activity) ([2]; Conc. 100 nM)	IC50 [3]
CN(C)CCCOc1ccc(-c2ccc3ncc4c(c3c2)n(C2CCOCC2)c(=O)n4C)cn1 [AZD0156, reference compound]	9.8 nM							90%	95%	100%	9.87 nM
